Assay results: patent publication US8835428B2, “Diacylglycerol acyltransferase inhibitors” (Piramal Enterprises Limited, priority 2008, dated 2014)

What follows are molecules tested against T1, hDGAT1 (Homo sapiens, UniProt O75907) (assay: In-vitro DGAT1 assay (hDGAT1 microsomes from Sf9 cells, 14C oleoyl CoA, triglyceride formation)). Settings: At 1 μM.
T1 construct: host or cells: Sf9 insect cells (baculovirus); microsomal preparation
T1 sequence (O75907 1-488): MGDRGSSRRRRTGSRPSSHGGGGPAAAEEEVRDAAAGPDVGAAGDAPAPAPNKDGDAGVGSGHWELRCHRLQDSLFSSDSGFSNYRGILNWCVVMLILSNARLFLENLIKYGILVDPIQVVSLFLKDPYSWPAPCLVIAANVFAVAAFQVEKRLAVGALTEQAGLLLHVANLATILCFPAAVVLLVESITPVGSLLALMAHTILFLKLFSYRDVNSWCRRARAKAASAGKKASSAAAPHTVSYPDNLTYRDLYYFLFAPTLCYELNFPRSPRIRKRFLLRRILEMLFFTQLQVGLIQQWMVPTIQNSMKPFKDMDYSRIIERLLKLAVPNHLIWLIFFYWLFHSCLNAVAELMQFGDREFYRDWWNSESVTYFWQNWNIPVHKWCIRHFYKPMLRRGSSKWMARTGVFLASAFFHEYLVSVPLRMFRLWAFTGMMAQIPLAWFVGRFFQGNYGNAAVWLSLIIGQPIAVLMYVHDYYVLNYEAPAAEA
Format: biochemical
How it was run: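 Compounds tested in duplicate at 10, 5 and 1 μM for 10 min at 37 °C. Reaction: Sf9-expressed hDGAT1 microsomes (2.5–10 μg), [14C]oleoyl-CoA plus 409.5–1638 μM dioleoylglycerol, pH 7.4 Tris-HCl with fatty-acid-free BSA. Radiolabelled triglyceride extracted into heptane and scintillation-counted.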

| inhibition at 1 µM [%] | SMILES |
| --- | --- |
| 0 to 50 | COC(=O)[C@H](NC(=O)c1cc(-c2ccc(NC(=O)Nc3ccccc3F)cc2)no1)C(C)C [Example 257, (R)-Methyl 2-(3-(4-(3-(2-fluorophenyl)ureido)phenyl)isoxazole-5-carboxamido)-3-methylbutanoate] |
| 50 to 75 | CC(C)[C@@H](NC(=O)c1cc(-c2ccc(NC(=O)Nc3ccccc3F)cc2)no1)C(=O)O [Example 258, (R)-2-(3-(4-(3-(2-Fluorophenyl)ureido)phenyl)isoxazole-5-carboxamido)-3-methylbutanoic acid] |
| 0 to 50 | CC(C)C(NC(=O)c1cc(-c2ccc(Oc3nc4ccc(F)cc4s3)cc2)no1)C(=O)O (stereo not drawn) [Example 335, 2-(3-(4-(6-fluorobenzo[d]thiazol-2-yloxy)phenyl)isoxazole-5-carboxamido)-3-methylbutanoic acid] |
| 50 to 75 | Cc1cc(C)cc(NC(=O)Nc2ccc(-c3cc(C(=O)N[C@H](C(=O)O)C(C)C)on3)cc2)c1 [Example 205, (S)-2-(3-(4-(3-(3,5-dimethylphenyl)ureido)phenyl)isoxazole-5-carboxamido)-3-methylbutanoic acid] |
| 0 to 50 | Cc1cccc(Cl)c1NC(=O)Nc1ccc(-c2cc(C(=O)N[C@H](C(=O)O)C(C)C)on2)cc1 [Example 175, (S)-2-(3-(4-(3-(2-Chloro-6-methylphenyl)ureido)phenyl)isoxazole-5-carboxamido)-3-methylbutanoic acid] |
| 75 to 100 | CC(C)[C@H](NC(=O)c1cc(-c2ccc(NC(=O)Nc3ccc(Cl)cc3)cc2)no1)C(=O)O [Example 179, (S)-2-(3-(4-(3-(4-Chlorophenyl)ureido)phenyl)isoxazole-5-carboxamido)-3-methylbutanoic acid] |
| 75 to 100 | CC(C)[C@H](NC(=O)c1cc(-c2ccc(NC(=O)Nc3ccc(Cl)cc3F)cc2)no1)C(=O)O [Example 193, (S)-2-(3-(4-(3-(4-chloro-2-fluorophenyl)ureido)phenyl)isoxazole-5-carboxamido)-3-methylbutanoic acid] |
| 75 to 100 | Cc1ccc(Cl)c(NC(=O)Nc2ccc(-c3cc(C(=O)N[C@H](C(=O)O)C(C)C)on3)cc2)c1 [Example 189, (S)-2-(3-(4-(3-(2-chloro-5-methylphenyl)ureido)phenyl)isoxazole-5-carboxamido)-3-methylbutanoic acid] |

Second part, the molecule before the results:

| SMILES | inhibition at 1 µM [%] |
| --- | --- |
| O=C(Nc1ccc(-c2cc(C(=O)N3CCC[C@H]3C(=O)O)on2)cc1)Nc1ccccc1F [Example 262, (S)-1-(3-(4-(3-(2-Fluorophenyl)ureido)phenyl)isoxazole-5-carbonyl) pyrrolidine-2-carboxylic acid] | 50 to 75 |
| CC(C)[C@@H](C(=O)O)N(C)C(=O)c1cc(-c2ccc(NC(=O)NC3CCCCC3)cc2)no1 [Example 312, (S)-2-(3-(4-(3-cyclohexylureido)phenyl)-N-methylisoxazole-5-carboxamido)-3-methylbutanoic acid] | 0 to 50 |
| COC(=O)[C@H](C(C)C)N(C)C(=O)c1cc(-c2ccc(NC(=O)Nc3ccc(F)cc3)cc2)no1 [Example 307, (S)-methyl 2-(3-(4-(3-(4-fluorophenyl)ureido)phenyl)-N-methylisoxazole-5-carboxamido)-3-methylbutanoate] | 50 to 75 |

Same assay, conditions: At 5 μM

| % inhibition of hDGAT1 | inhibition at 5 µM [%] | SMILES |
| --- | --- | --- |
| + (>0% Inhibition ≦50) | – | COC(=O)C(NC(=O)c1cc(-c2ccc(NC(=O)Nc3ccccc3C)cc2)no1)C(C)C (stereo not drawn) [Example 153, Methyl 3-methyl-2-(3-(4-(3-o-tolylureido)phenyl)isoxazole-5-carboxamido) butanoate] |
| – | 50 to 75 | CC(C)[C@H](NC(=O)c1cc(-c2ccc(NC(=S)Nc3ccccc3F)cc2)no1)C(=O)O [Example 270, (S)-2-(3-(4-(3-(2-fluorophenyl)thioureido)phenyl)isoxazole-5-carboxamido)-3-methylbutanoic acid] |
| – | 0 to 50 | COC(=O)[C@@H](NC(=O)c1nc(-c2ccc(NC(=S)Nc3ccc(F)cc3)cc2)no1)C(C)C [Example 354, (S)-Methyl 2-(3-(4-(3-(4-fluorophenyl)thioureido)phenyl)-1,2,4-oxadiazole-5-carboxamido)-3-methylbutanoate] |

Same assay, conditions: At 10 μM

| inhibition at 10 µM [%] | SMILES |
| --- | --- |
| 0 to 50 | COC(=O)C(C)NC(=O)c1cc(-c2ccc(NC(=O)Nc3ccc(F)cc3)cc2)no1 (stereo not drawn) [Example 115, Methyl 2-(3-(4-(3-(4-fluorophenyl)ureido)phenyl)isoxazole-5-carboxamido)propanoate] |
| 75 to 100 | Cc1ccc(NC(=O)Nc2ccc(-c3cc(C(=O)NC(C(=O)O)C(C)C)on3)cc2)cc1 (stereo not drawn) [Example 126, 3-Methyl-2-(3-(4-(3-p-tolylureido)phenyl)isoxazole-5-carboxamido) butanoic acid] |
| 0 to 50 | Cc1cc(-c2cc(C(=O)NC(CC(C)C)C(=O)O)on2)ccc1NC(=O)Nc1c(F)cccc1F (stereo not drawn) [Example 100, 2-(3-(4-(3-(2,6-Difluorophenyl)ureido)-3-methylphenyl)isoxazole-5-carboxamido)-4-methylpentanoic acid] |
| 0 to 50 | Cc1cc(-c2cc(C(=O)NC(C)C(=O)O)on2)ccc1NC(=O)Nc1c(F)cccc1F (stereo not drawn) [Example 102, 2-(3-(4-(3-(2,6-Difluorophenyl)ureido)-3-methylphenyl)isoxazole-5-carboxamido)propanoic acid] |

Second part, the molecule before the results:

| SMILES | inhibition at 10 µM [%] |
| --- | --- |
| COC(=O)[C@H](CC(C)C)NC(=O)c1cc(-c2ccc(NC(=O)NC3CCCCC3)cc2)no1 [Example 82, (S)-2-({3-[4-(3-cyclohexyl-ureido)-phenyl]-isoxazole-5-carbonyl}-amino)-4-methyl-pentanoic acid methyl ester] | 0 to 50 |
| COC[C@H](NC(=NO)c1cc(-c2ccc(Nc3nc4ccc(F)cc4s3)cc2)no1)C(=O)OC [Example 16, (S)-2-({3-[4-(6-Fluoro-benzothiazol-2-ylamino)-phenyl]-N-hydroxy-isoxazole-5-carboximidoyl}-amino)-3-methoxy-propionic acid methyl ester] | 50 to 75 |
| COC(=O)[C@H](CC(C)C)NC(=O)c1onc(-c2ccc(Nc3nc4ccc(F)cc4s3)cc2)c1-c1ccccc1 [Example 94, (S)-2-({3-[4-(6-Fluoro-benzothiazol-2-ylamino)-phenyl]-4-phenyl-isoxazole-5-carbonyl}-amino)-4-methyl-pentanoic acid methyl ester] | 0 to 50 |
| COC(=O)[C@@H](NC(=NO)c1cc(-c2ccc(Nc3nc4ccc(F)cc4s3)cc2)no1)c1ccccc1 [Example 56, (S)-({3-[4-(6-Fluoro-benzothiazol-2-ylamino)-phenyl]-N-hydroxy-isoxazole-5-carboximidoyl}-amino)-phenyl-acetic acid methyl ester] | 0 to 50 |
| COC(=O)[C@H](CC(C)C)NC(=NO)c1cc(-c2ccc(Nc3nc4ccc(F)cc4s3)cc2)no1 [Example 50, (S)-2-({3-[4-(6-Fluoro-benzothiazol-2-ylamino)-phenyl]-N-hydroxy-isoxazole-5-carboximidoyl}-amino)-4-methyl-pentanoic acid methyl ester] | 0 to 50 |
| COC[C@H](NC(=NO)c1cc(-c2ccc(Nc3nc4ccc(F)cc4s3)cc2)no1)C(=O)O [Example 17, (S)-2-({3-[4-(6-Fluoro-benzothiazol-2-ylamino)-phenyl]-N-hydroxy-isoxazole-5-carboximidoyl}-amino)-3-methoxy-propionic acid] | 0 to 50 |
| COC(=O)[C@@H](NC(=S)c1cc(-c2ccc(Nc3nc4ccc(F)cc4s3)cc2)no1)C(C)C [Example 6, (S)-2-({3-[4-(6-Fluoro-benzothiazol-2-ylamino)-phenyl]-isoxazole-5-carbothioyl}-amino)-3-methyl-butyric acid methyl ester] | 0 to 50 |
| O=C(O)[C@@H](NC(=NO)c1cc(-c2ccc(Nc3nc4ccc(F)cc4s3)cc2)no1)c1ccccc1 [Example 57, (S)-({3-[4-(6-Fluoro-benzothiazol-2-ylamino)-phenyl]-N-hydroxy-isoxazole-5-carboximidoyl}-amino)-phenyl-acetic acid] | 0 to 50 |
| O=C(NC1(C(=O)O)CCCC1)c1cc(-c2ccc(Nc3nc4ccc(F)cc4s3)cc2)no1 [Example 63, 1-({3-[4-(6-Fluoro-benzothiazol-2-ylamino)-phenyl]-isoxazole-5-carbonyl}-amino)-cyclopentanecarboxylic acid] | 0 to 50 |
| COC[C@H](NC(=S)c1cc(-c2cccc(Nc3nc4ccc(F)cc4s3)c2)no1)C(=O)OC [Example 30, (S)-2-({3-[3-(6-Fluoro-benzothiazol-2-ylamino)-phenyl]-isoxazole-5-carbothioyl}-amino)-3-methoxy-propionic acid methyl ester] | 0 to 50 |
| CC(C)C[C@H](NC(=O)c1cc(-c2ccc(NC(=O)NC3CCCCC3)cc2)no1)C(=O)O [Example 83, (S)-2-({3-[4-(3-cyclohexyl-ureido)-phenyl]-isoxazole-5-carbonyl}-amino)-4-methyl-pentanoic acid] | 50 to 75 |
| COC(=O)C(CC(C)C)NC(=O)c1cc(-c2ccc(NC(=O)Nc3ccc(F)cc3F)cc2C)no1 (stereo not drawn) [Example 139, Methyl 2-(3-(4-(3-(2,4-difluorophenyl)ureido)-2-methylphenyl)isoxazole-5-carboxamido)-4-methylpentanoate] | 0 to 50 |
